Patent US20220071952A1, “METHODS OF TREATING AND PREVENTING HEPATOTOXICITY” (Natreon, Inc., priority 2020, published 2022)
Values joined by “and” are separate entries in the source; they are usually repeats but may differ in a detail not shown here. Identical values can stand only once.

What was measured:
[1] = system: CCl4-induced hepatotoxicity in mice; experiment: Carbon tetrachloride (CCl4)-induced hepatotoxicity in mice, serum biochemical parameters (Example II); format: in vivo, Swiss albino mice; conditions: for ALT / AST / MDA / Total Bilirubin / Total Protein: 10 mg/kg p.o. 7 days + CCl4 (30%) 1 ml/kg i.p., serum, mean ± SD, n=6
Protocol: Swiss albino mice of both sexes, weighing approximately 25-30 g, were obtained from National Research Institute of Ayurveda for Drug Development (Govt. of India), Kolkata, and were housed in polypropylene cages at 22±3° C., relative air humidity of 45 to 55%, with 12.00 hr light and dark cycle (lighting on from 6:00 AM to 6:00 PM) and were provided standard pellet chow (carbohydrate 65.5%, protein 17.6%, fat 6.6%) and distilled water ad libitum. The mice were acclimatized for one week in the laboratory conditions before being used in the experiment. All experiments were conducted between 10.00 hr and 14.00 hr. Principles of laboratory animals care (NIH publication no. 85-23, revised 1985) were followed.

[2] = system: paracetamol-induced hepatotoxicity in mice; experiment: Synergistic hepatoprotective activity of DBPs against paracetamol-induced hepatotoxicity (Example IV); format: in vivo; conditions: for ACP / ALP / ALT / AST / Total Protein: paracetamol 200 mg/kg, mean ± SEM, n=4
[3] = system: alcohol-induced hepatotoxicity in mice; experiment: Synergistic hepatoprotective activity of DBPs against alcohol-induced hepatotoxicity (Example IV); conditions: for ACP / ALP / ALT / AST / Total Protein: alcohol 5 g/kg, mean ± SEM, n=4
Protocol: Hepatotoxicity was induced by oral administration of alcohol (ethanol: 5 g/kg) from stock 400 mg/ml twice daily for 15 days.
3-OH-DBP and 3,8-(OH)2-DBP were each separately suspended in 0.3% CMC and administered at a dose of 10 mg/kg body weight per orally for 15 days. During the 15 days treatment, body weight, food intake, and water intake were monitored at regular intervals. Following 15 days of treatment physical parameters (relative organ weight) and biochemical parameters (plasma total protein content, ALT, AST, ALP, and ACP) were studied.
3-OH-DBP (2 mg/kg body weight, 10 mg/kg body weight);
3,8-(OH)2-DBP (10 mg/kg body weight, 50 mg/kg body weight); and

[4] = system: alcohol-induced hepatotoxicity in mice; experiment: Alcohol (ethanol)-induced hepatotoxicity in mice, biochemical and physical parameters (Example III); format: in vivo, Swiss Albino mice; conditions: for Relative organ weight (w.r.t body weight) Kidney / Relative organ weight (w.r.t body weight) Liver / ACP / ALP / ALT(SGPT) / AST(SGOT) / Total Protein: 10 mg/kg p.o. + alcohol 5 g/kg p.o. twice daily, mean ± SD; for ACP / ALP / ALT(SGPT) / AST(SGOT) / Total Protein: plasma
Protocol: Swiss Albino male and female mice weighing approximately 30±5 g, 2 month old mice were obtained from National Research Institute of Ayurveda for Drug Development (Govt. of India), Kolkata, and were housed in polypropylene cages at 22±3° C., relative air humidity of 45 to 55%, with 12.00 hr light & dark cycle (lighting on from 6:00 AM to 6:00 PM). Mice were provided a standard pellet chow diet (carbohydrate 65.5%, protein 17.6%, fat 6.6%) and distilled water ad libitum. The mice were acclimatized for one week in the laboratory conditions, before being used in the experiment. All experiments were conducted between 10.00 hr and 14.00 hr. Principles of laboratory animals care (NIH publication no. 85-23, revised 1985) were followed.
In the present study simultaneous administration of alcohol (ethanol) and treatment with 3-OH-DBP and 3,8-(OH)2-DBP was done.
Vehicle control animals (“Con Veh”) were administered 0.3% CMC orally for 15 days.
Animals receiving ethanol (“Alc+0.3 CMC”, “3-OH-DBP+Alc”, “3,8-(OH)2-DBP+Alc”) were administered ethanol in 0.3% CMC orally as discussed above.
Results were expressed in terms of mean±SD (n=8). The data were subjected to one way ANOVA followed by Tukey's test using GraphPad Prism 4.0 software to establish statistical significance (*p<0.05, **p<0.01, ***p<0.001 vs. vehicle control; # p<0.05, ## p<0.01, ### p<0.001 vs. animals administered ethanol only).

[5] = female mice, doses 3-OH-DBP 2, 3,8-(OH)2-DBP 10, 1:5 combination 12 mg/kg b.w.
[6] = female mice, doses 3-OH-DBP 10, 3,8-(OH)2-DBP 50, 1:5 combination 60 mg/kg b.w.
[7] = male mice, doses 3-OH-DBP 2, 3,8-(OH)2-DBP 10, 1:5 combination 12 mg/kg b.w.
[8] = male mice, doses 3-OH-DBP 10, 3,8-(OH)2-DBP 50, 1:5 combination 60 mg/kg b.w.
[9] = female mice, doses 3-OH-DBP 2, 3,8-(OH)2-DBP 10, combination 12 mg/kg b.w.
[10] = female mice (Table 14), 10 mg/kg p.o.
[11] = male mice (Table 13), 10 mg/kg p.o.

**Q.** What does the source list for `O=c1oc2cc(O)ccc2c2ccc(O)cc12` [3,8-(OH)2-DBP, 3,8-dihydroxy-dibenzo-alpha-pyrone]?
**A.** effect on CCl4-induced hepatotoxicity (ALT, AST, bilirubin, total protein vs CCl4 group) ([1]; 10 mg/kg p.o., mice): significantly attenuated and reversed the CCl4-induced hepatotoxicity; effect on CCl4-induced lipid peroxidation (MDA) ([1]; 10 mg/kg p.o., mice): significantly lowered CCl4-induced lipid peroxidation; ALT ([1]; female mice): 60.99 ± 13.49 IU/L; AST ([1]; female mice): 12.95 ± 2.46 IU/L; MDA ([1]; female mice): 6.53 ± 0.66 nmol/mL; Total Bilirubin ([1]; female mice): 0.60 ± 0.18 mg/dL; Total Protein ([1]; female mice): 4.02 ± 0.3 g/dL; hepatoprotective activity against carbon tetrachloride-induced liver damage, in comparison to 3-OH-DBP ([1]; females, 10 mg/kg p.o.): better hepatoprotective activity; ALT ([1]; male mice): 64.78 ± 4.65 IU/L; AST ([1]; male mice): 13.04 ± 3.74 IU/L; Total Bilirubin ([1]; male mice): 0.48 ± 0.14 mg/dL; Total Protein ([1]; male mice): 0.00412 ± 0.00086 g/dL; MDA ([1]; male mice, 10 mg/kg): 6.59 nmol/mL and 6.59 ± 0.82 nmol/mL; hepatoprotective activity against carbon tetrachloride-induced liver damage ([1]; males and females, 10 mg/kg p.o.): significant hepatoprotective activity; ACP, difference in values from paracetamol treated mice [2, 5]: B = (a-c = 4) U/L; ALP, difference in values from paracetamol treated mice [2, 5]: D = (a-c = 53) IU/L; ALT, difference in values from paracetamol treated mice [2, 5]: B = (a-c = 39) IU/L; AST, difference in values from paracetamol treated mice [2, 5]: B = (a-c = 64) IU/L; ACP, difference in values from paracetamol treated mice [2, 6]: E = (a-f = 5) U/L; ALP, difference in values from paracetamol treated mice [2, 6]: E = (a-f = 48) IU/L; ALT, difference in values from paracetamol treated mice [2, 6]: E = (a-f = 43) IU/L; AST, difference in values from paracetamol treated mice [2, 6]: E = (a-f = 77) IU/L; ACP [2, 5]: 12 ± 0.63^##(c) U/L; ALP [2, 5]: 45 ± 7.9^##(c) IU/L; ALT [2, 5]: 47 ± 12 (c) IU/L; AST [2, 5]: 79 ± 11*,^#(c) IU/L; Total Protein [2, 5]: 6.7 ± 0.02 g/dL; ACP [2, 6]: 11 ± 0.41^#(f) U/L; ALP [2, 6]: 50 ± 11^#(f)^ IU/L; ALT [2, 6]: 43 ± 2.5^##(f) IU/L; AST [2, 6]: 66 ± 11*,^#(f) IU/L; Total Protein [2, 6]: 5.8 ± 0.30 g/dL; Relative liver weight ([2]; male and female mice, paracetamol study of Example IV): significantly (p<0.01) increased; ACP, difference in values from paracetamol treated mice [2, 7]: B = (a-c = 6.13) U/L; ALP, difference in values from paracetamol treated mice [2, 7]: B = (a-c = 50.87) IU/L; ALT, difference in values from paracetamol treated mice [2, 7]: B = (a-c = 18.35) IU/L; AST, difference in values from paracetamol treated mice [2, 7]: B = (a-c = 33.82) IU/L; ACP, difference in values from paracetamol treated mice [2, 8]: E = (a-f = 10.56) U/L; ALP, difference in values from paracetamol treated mice [2, 8]: E = (a-f = 48.85) IU/L; ALT, difference in values from paracetamol treated mice [2, 8]: E = (a-f = 20.56) IU/L; AST, difference in values from paracetamol treated mice [2, 8]: E = (a-f = 46.36) IU/L; ACP [2, 7]: 12.06 ± 0.43 (c) U/L; ALP [2, 7]: 77.63 ± 6.81 (c) IU/L; ALT [2, 7]: 49.28 ± 7.23 (c) IU/L; AST [2, 7]: 68.23 ± 4.96^###(c) IU/L; Total Protein [2, 7]: 6.97 ± 0.12 g/dL; ACP [2, 8]: 7.63 ± 0.45^##(f) ^ U/L; ALP [2, 8]: 79.67 ± 10.18^###(f) IU/L; ALT [2, 8]: 47.07 ± 6.69^#(f) ^ IU/L; AST [2, 8]: 55.69 ± 5.37^###(f) IU/L; Total Protein [2, 8]: 6.98 ± 0.12 g/dL; hepatoprotective activity (conclusion, Tables 15 and 16) ([2]; paracetamol-induced hepatotoxicity, male and female mice): hepatoprotective activity in a dose dependent manner; hepatoprotective activity (conclusion, Tables 17 and 18) ([3]; alcohol-induced hepatotoxicity, male and female mice): hepatoprotective activity in a dose dependent manner; ACP [3, 9]: 15.6 ± 0.99 U/L; ALP [3, 9]: 84 ± 6.5 (c) IU/L; ALT [3, 9]: 45.80 ± 5.76 (c)^ IU/L; AST [3, 9]: 64.09 ± 7.34 (c)^ IU/L; Total Protein [3, 9]: 6.53 ± 0.10 g/dL; Relative liver weight ([3]; female mice, alcohol study of Example IV): significantly decreased; ACP, difference in values from alcohol treated mice [3, 9]: (c) B = (a-c = 5.67) U/L; ALP, difference in values from alcohol treated mice [3, 9]: B = (a-c = 55.35) IU/L; ALT, difference in values from alcohol treated mice [3, 9]: B = (a-c = 43.04) IU/L; AST, difference in values from alcohol treated mice [3, 9]: B = (a-c = 4.9) IU/L; ACP [3, 7]: 11.2 ± 1.44 (c) U/L; ALP [3, 7]: 88.1 ± 15.8 (c) IU/L; ALT [3, 7]: 53.9 ± 3.99 (c) IU/L; AST [3, 7]: 25.6 ± 3.10 (c) IU/L; Total Protein [3, 7]: 7.65 ± 0.34 g/dL; ACP [3, 8]: 9.19 ± 0.71 (f)^ U/L; ALP [3, 8]: 78 ± 7.21 (f) IU/L; ALT [3, 8]: 64.3 ± 2(f) ^ IU/L; AST [3, 8]: 24.8 ± 2.19 (f) IU/L; Total Protein [3, 8]: 8.60 ± 0.35 g/dL; ACP, difference in values from alcohol treated mice [3, 7]: B = (a-c = 7.4) U/L; ALP, difference in values from alcohol treated mice [3, 7]: B = (a-c = 45.9) IU/L; ALT, difference in values from alcohol treated mice [3, 7]: B = (a-c = 52.1) IU/L; AST, difference in values from alcohol treated mice [3, 7]: B = (a-c = 35.1) IU/L; ACP, difference in values from alcohol treated mice [3, 8]: E = (a-f = 9.41) U/L; ALP, difference in values from alcohol treated mice [3, 8]: E = (a-f = 56) IU/L; ALT, difference in values from alcohol treated mice [3, 8]: E = (a-f = 41.7) IU/L; AST, difference in values from alcohol treated mice [3, 8]: E = (a-f = 35.9) IU/L; hepatoprotective activity against alcohol-induced hepatotoxicity ([4]; 10 mg/kg p.o., 15 days): significant hepatoprotective activity; effect on alcohol-induced increased plasma ACP [4, 10]: significantly (p<0.05) attenuated; effect on alcohol-induced increased plasma ALT [4, 10]: significantly (p<0.001) attenuated; effect on alcohol-induced increased plasma AST [4, 10]: significantly (p<0.05; p<0.01) attenuated; effect on plasma ALP level compared with ALC group [4, 10]: did not show significant (p>0.05) change; Relative organ weight (w.r.t body weight) Kidney ([4]; female mice, 15 days): 0.012 ± 0.001; Relative organ weight (w.r.t body weight) Liver ([4]; female mice, 15 days): 0.048 ± 0.001; ACP ([4]; female mice, 15 days): 4.31 ± 2.84^## IU/L; ALP ([4]; female mice, 15 days): 43.12 ± 5.84 IU/L; ALT(SGPT) ([4]; female mice, 15 days): 6.72 ± 0.727^## IU/L; AST(SGOT) ([4]; female mice, 15 days): 3.62 ± 1.27^## IU/L; Total Protein ([4]; female mice, 15 days): 3.229 ± 0.187 g/dL; effect on alcohol-induced increased plasma ACP [4, 11]: significantly (p<0.05) attenuated; effect on alcohol-induced increased plasma ALT [4, 11]: significantly (p<0.05) attenuated; effect on alcohol-induced increased plasma AST [4, 11]: significantly (p<0.05) attenuated; Relative organ weight (w.r.t body weight) Kidney ([4]; male mice, 15 days): 0.016 ± 0.002; Relative organ weight (w.r.t body weight) Liver ([4]; male mice, 15 days): 0.044 ± 0.005; ACP ([4]; male mice, 15 days): 4.29 ± 1.22^## IU/L; ALP ([4]; male mice, 15 days): 27.39 ± 6.15 ^ IU/L; ALT(SGPT) ([4]; male mice, 15 days): 9.98 ± 3.44^# IU/L; AST(SGOT) ([4]; male mice, 15 days): 4.51 ± 1.80^# IU/L; Total Protein ([4]; male mice, 15 days): 3.229 ± 0.187^ g/dl
